The structures appear in SMILES notation. Counter-ions that a name gives are not always drawn. Like-named read-outs stand apart in the source and are kept apart here. Marks after values point to notes of the source that are not given here.

For assay [1], the target named is T1, limbic D-2 dopamine receptor (Rattus norvegicus, UniProt P61169).
T1 construct: Limbic brain tissue (nucleus accumbens, septal area, olfactory tubercle) is dissected; from tissue; host or cells: rat limbic brain tissue (nucleus accumbens, septal area, olfactory tubercle) homogenate
T1 sequence (P61169 whole entry): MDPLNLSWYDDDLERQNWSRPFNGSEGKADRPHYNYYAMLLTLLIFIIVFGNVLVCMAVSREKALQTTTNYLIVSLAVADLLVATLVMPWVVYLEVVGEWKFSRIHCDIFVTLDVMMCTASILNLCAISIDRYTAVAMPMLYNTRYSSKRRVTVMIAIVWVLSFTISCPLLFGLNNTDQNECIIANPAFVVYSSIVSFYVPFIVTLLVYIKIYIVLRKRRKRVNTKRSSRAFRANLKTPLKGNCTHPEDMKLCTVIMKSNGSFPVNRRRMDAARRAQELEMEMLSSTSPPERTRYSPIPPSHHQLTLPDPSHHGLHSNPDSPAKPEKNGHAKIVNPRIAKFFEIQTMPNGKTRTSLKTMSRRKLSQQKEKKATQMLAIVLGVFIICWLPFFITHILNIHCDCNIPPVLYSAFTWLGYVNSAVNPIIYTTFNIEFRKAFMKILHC
In words: biochemical. The class given is binding, rats. The conditions noted are these: for Ki: Table 1, 0.3 nM 3H-spiroperidol, rat limbic brain tissue, read-out: Limbic D-2 Binding (KinM); for inhibition at 1 µM: read-out: Limbic D-2 Binding, % inhibition at 1 µM.

Assay [2] deals with avoidance responding. In words: conditioned avoidance (shelf-jump response) test. The conditions noted are these: i.p., active dose. The class given is in vivo, Male CD rats. As to the method: Another test designed to determine the potential antipsychotic activity of the compounds of the invention is the conditioned avoidance (shelf-jump response) test.
This test is carried out as follows: Male CD rats (Charles River) maintained at approximately 400-450 gm body weight are used. Previously trained rats are placed in plexiglass experimental chambers divided into two sections; a main chamber (10 1/2" x 6 3/4" x 11 7/8" high) and an elevated chamber or shelf (5 7/8" x 6 7/8" x 5 3/4"). A moveable wall, controlled by a motor, determines whether the rat has access to the shelf at any time during the experiment. The experimental chamber also contains a house light and sonalert. A steel grid floor in the main chamber is wired for presentation of electric shock. Each trial consists of a fifteen-second warning tone (conditioned stimulus), continuing for an additional fifteen seconds accompanied by electric shock, (unconditioned stimulus). A response (jumping onto the exposed shelf of the upper chamber) occurring during the initial fifteen-second warning tone is considered an avoidance response, while a response occurring during shock delivery is considered an escape response. Trials are presented on a fixed interval schedule of one minute. The session consists of thirty-six trials. Animals are run twice weekly with control sessions always preceding a drug run, and with at least one day intervening. Compounds are administered i.p. or p.o. at appropriate pre-treatment times to a minimum of five rats at each dose level over a range of doses.
The following experimental parameters are recorded by computer: (1) the number of avoidance responses, (2) the number of escape responses, and (3) the number of trials in which no response occurred.
(§1) Response counts are summed over all subjects at a given dose. […] This number is expressed as a percentage of the total trials. Control performance is arbitrarily assigned a value of 100% for avoidance and the dose calculated to produce a 50% block in avoidance responding (AB₅₀) is obtained from a dose-effect regression line fitted by the method of least squares. Potential antipsychotic compounds suppress avoidance responding and increase escape responding.

Assay [3] deals with avoidance responding. In words: conditioned avoidance (discrete trial) test. Type of assay: in vivo, Male CD rats. As to conditions: Rattus norvegicus, po; footnote 1 = AB50 value; read-out: Active at mg/kg (AB50 value). As to the method:
The antipsychotic activity of the compounds of the invention is assessed via the conditioned avoidance (discrete trial) test. This test has excellent clinical correlation for antipsychotic activity.
The test is carried out as follows: Male CD rats (Charles River) maintained at approximately 400-450 gm body weight are used. Rats trained previously are placed in plexiglass experimental chambers equipped with a response lever, house light, and sonalert. A steel grid floor is wired for presentation of electric shock. Each trial consists of a fifteen-second warning tone (conditioned stimulus), continuing for an additional fifteen seconds accompanied by electric shock, (unconditioned stimulus). The rat can terminate a trial at any point by depression of the response lever. As response during the initial fifteen-second warning tone ends the trial before shock delivery and is considered avoidance response, while a response occurring during shock delivery is an escape response. Trials are presented on a variable interval schedule of two minutes. The session consists of sixty trials. Animals are run two to three times weekly with control sessions always preceding a drug run, and with at least one day intervening, compounds are administered i.p. or p.o. at appropriate pre-treatment times to a minimum of five to six rats at each dose level over a range of doses.
as §1

For assay [4], the target named is T2, 5-HT-1A serotonin receptor (Rattus norvegicus, UniProt P19327).
T2 construct: Hippocampal tissue is dissected and homogenized on ice; from tissue; host or cells: rat hippocampal membrane homogenate
T2 sequence (P19327 1-422): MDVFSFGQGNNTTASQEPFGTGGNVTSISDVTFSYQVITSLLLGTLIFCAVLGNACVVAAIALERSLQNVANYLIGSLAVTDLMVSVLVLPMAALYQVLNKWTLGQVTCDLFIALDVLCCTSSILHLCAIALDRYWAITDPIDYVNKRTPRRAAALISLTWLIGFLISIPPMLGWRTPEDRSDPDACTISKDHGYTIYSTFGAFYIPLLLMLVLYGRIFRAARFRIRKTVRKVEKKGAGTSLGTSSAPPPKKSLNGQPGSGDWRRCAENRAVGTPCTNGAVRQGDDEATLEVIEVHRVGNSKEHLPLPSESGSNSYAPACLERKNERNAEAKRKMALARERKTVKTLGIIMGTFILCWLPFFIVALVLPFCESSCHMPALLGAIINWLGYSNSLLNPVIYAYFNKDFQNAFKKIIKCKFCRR
As to the kind of experiment: ex vivo inhibition of 5-HT-1A serotonin receptor binding (3H-8-OH-DPAT, hippocampal membranes). On the set-up: species or system rats. As to the method:
The assay is carried out as follows: Several groups of rats (4 - 6 rats/group) are injected with test compound or the appropriate vehicle. Thirty minutes later, unless otherwise noted, rats are decapitated and their brains removed. Various brain regions are dissected and rapidly frozen and maintained at -70°C until used.
Hippocampal tissue is dissected and homogenized on ice in 40 vols of buffer (50 mM Tris HCl, pH = 7.7) using a Polytron homogenizer at setting 5 for 3 x 15 sec bursts. The homogenate is then centrifuged at 20,000 rpm (RC5-B; 50,000 g) and the supernatant discarded. The pellet is resuspended in 40 vols of the same buffer and incubated at 37°C for 10 minutes to aid in the removal of endogenous serotonin. The homogenate is then centrifuged (as above) and the supernatant discarded. The pellet is then resuspended in 100 vols of buffer B (50 mM Tris HCl, pH = 7.7 containing 0.1% ascorbate, 10 µM pargyline and 4 mM CaCl₂) and sonicated. An aliquot is taken for protein determination by the Lowry method and the remainder stored frozen at -70°C until used.
The homogenate (50 µl; 0.4-0.6 mg protein/sample) is incubated with 100 µl (1.5-1.8 nM) ³H-8-hydroxy-2-(di-n-propylamino)tetraline in a final volume of 2 ml of buffer for 10 minutes at 37°C. At the end of the incubation, 3 ml of cold buffer A are added to each tube, and the contents rapidly filtered through Whatman GF/B glass filters. The filters are then rapidly washed 2 times with 3 ml of the same buffer, placed in scintillation vials, and shaken for 15 minutes with 10 ml of Hydrofluor (National Diagnostics)scintillation cocktail. The vials are then counted in a Packard 460 CD scintillation counter.
Specific binding is calculated for each of the treatment protocols and is defined as total binding less binding in the presence of excess unlabeled serotonin (1 µM). Specific binding obtained in vehicle-treated rats is compared to that obtained in animals receiving a single or various doses of test compound and expressed as percent of control. […] Linear regression analysis then yields a straight line with 95% confidence limits from which an IC₅₀ can be inversely predicted.

Setting [5] is: Table 4, 3H-8-OH-DPAT, rat hippocampal tissue, read-out: Inhibition Constant (Ki nm).

Turning to `O=C1C2C3C=CC(C4CC34)C2C(=O)N1CCCCN1CCN(c2cncc(Cl)n2)CC1` (centres unmarked) [Example 1, 2-[4-[4-(6-Chloro-2-pyrazinyl)-1-piperazinyl]butyl]hexahydro-4,6-ethenocycloprop[f]isoindole-1,3(2H,3aH)-dione, dihydrochloride, sesquihydrate], the Ki was 0.69 µM in assay [1] and 0.162 µM in assay [4] (setting [5]). For the same compound, in assay [2], the Active at mg/kg is recorded as 40 (i.p.)* mg/kg. Also, the ED50 in assay [3] worked out at 40 mg/kg.
Consider `O=C1C2C3C=CC(C4CCC34)C2C(=O)N1CCCCN1CCN(c2cnccn2)CC1` (centres unmarked) [Example 27, 3a,4,4a,5,6,6a,7,7a-Octahydro-2-[4-[4-(2-pyrazinyl)-1-piperazinyl]butyl]-4,7-etheno-1H-cyclobut[f]isoindole-1,3(2H)-dione, dihydrochloride, hemihydrate], for which, in assay [1], the inhibition at 1 µM stood at 41%. For the same compound, the Active at mg/kg in assay [2] was 40 (i.p.) mg/kg. Besides, the Ki in assay [4] (setting [5]) came out at 0.041 µM.
As for `O=C1C2C3C=CC(C3)C2C(=O)N1CCCCN1CCN(c2cncc(Cl)n2)CC1` (centres unmarked) [Example 13, 3a,4,7,7a,-Tetrahydro-2-[4-[4-(6-chloro-2-pyrazinyl)-1-piperazinyl]butyl]-4,7-methano-1H-isoindole-1,3(2H)-dione hydrochloride hydrate], the values for the inhibition at 1 µM in assay [1] and in assay [4] were 1% and 74%, respectively. Besides, the Active at mg/kg in assay [2] is recorded as 40 (i.p.) mg/kg. In addition, in assay [3], the ED50 stood at 39.7 mg/kg.
For `O=C1C2C3C=CC(C4CCC34)C2C(=O)N1CCCCN1CCN(c2ncccn2)CC1` (centres unmarked) [Example 16, 2-[4-[4-(2-Pyrimidinyl)-1-piperazinyl]butyl]-octahydro-4,7-etheno-1H-cyclobut[f]isoindole-1,3-(2H)-dione, dihydrochloride, hydrate], the Ki worked out at 0.085 µM in assay [1] and 0.0011 µM in assay [4]. Also, the Active at mg/kg in assay [2] is 40 (i.p.) mg/kg. Besides, in assay [3], the ED50 is 47.4 mg/kg.
As for `O=C1C2C3C=CC(C3)C2C(=O)N1CCCCN1CCN(c2nccnc2Cl)CC1` (centres unmarked) [Example 18, 2-[4-[4-(3-Chloro-2-pyrazinyl)-1-piperazinyl]butyl]-3a,4,7,7a-tetrahydro-4,7-methano-1H-isoindole-1,3-(2H)-dione, hydrochloride, 2.5 hydrate], the inhibition at 1 µM in assay [1] was determined as 48%. Further, the Active at mg/kg in assay [2] is reported as 40 (i.p.) mg/kg. Further, the ED50 in assay [3] was found to be 40 mg/kg.
As for `O=C1C2C3C=CC(CCCC3)C2C(=O)N1CCCCN1CCN(c2cncc(Cl)n2)CC1` (centres unmarked) [Example 8, 2-[4-[4-(6-Chloro-2-pyrazinyl)-1-piperazinyl]butyl]octahydro-4,9-etheno-1H-cycloocta[c]pyrrole-1,3(2H)-dione, dihydrochloride, sesquihydrate], the Ki came out at 0.345 µM in assay [1] and 0.122 µM in assay [4] (setting [5]). Also, in assay [2], the Active at mg/kg was 40 (i.p.) mg/kg.
With `O=C1C2C3C=CC(C4CC34)C2C(=O)N1CCCCN1CCN(c2cnccn2)CC1` (centres unmarked) [Example 24, 4,4a,5,5a,6,6a-Hexahydro-2-[4-[4-(2-pyrazinyl)-1-piperazinyl]butyl]-4,6-ethenocycleprop[f]isoindole-1,3-(2H,3aH)-dione, dihydrochloride, hydrate], the values for the inhibition at 1 µM in assay [1] and in assay [4] were 38% and 68%, respectively. Also, the Active at mg/kg in assay [2] is reported as 40 (i.p.) mg/kg. For the same compound, the ED50 in assay [3] was determined as 49.6 mg/kg.
In the case of `O=C1C2C3C=CC(C4C=CC43)C2C(=O)N1CCCCN1CCN(c2cnccn2)CC1` (centres unmarked) [Example 23, 3a,4,4a,6a,7,7a-Hexahydro-2-[4-[4-(2-pyrazinyl)-1-piperazinyl]butyl]-4,7-etheno-1H-cyclobut[f]isoindole-1,3-(2H)-dione, fumarate(1:1)], the inhibition at 1 µM in assay [1] stood at 13%; in assay [4], 46%. Moreover, the Active at mg/kg in assay [2] is 40 (i.p.) mg/kg.
Consider `O=C1C2C3CCC(C4CC43)C2C(=O)N1CCCCN1CCN(c2ncccn2)CC1` (centres unmarked) [Example 7, 2-[4-[4-(2-Pyrimidinyl)-1-piperazinyl]butyl]octahydro-4,6-ethanocycloprop[f]isoindole-1,3-(2H, 3aH)-dione, dihydrochloride, dihydrate], for which the results for the Ki in assay [1] and in assay [4] (setting [5]) were 0.14 µM and 0.0139 µM, respectively. Moreover, the Active at mg/kg in assay [2] is given as 40 (i.p.) mg/kg.
Take `O=C1C2C3C=CC(CCC3)C2C(=O)N1CCCCN1CCN(c2ncccn2)CC1` (centres unmarked) [Example 21, 4,5,6,7,8,8a-Hexahydro-2-[4-[4-(2-pyrimidinyl)-1-piperazinyl]butyl]-4,8-ethenocyclohepta[c]pyrrole-1,3(2H,3aH)-dione, dihydrochloride, hemihydrate]: the inhibition at 1 µM in assay [1] amounted to 53%. Moreover, in assay [2], the Active at mg/kg is given as 40 (i.p.) mg/kg. Also, the Ki in assay [4] (setting [5]) came out at 0.012 µM.
Regarding `O=C1C2C3C=CC(C4C=CC43)C2C(=O)N1CCCCN1CCN(c2ncccn2)CC1` (centres unmarked) [Example 3, 3a,4,4a,6a,7,7a-Hexahydro-2-[4-[4-(2-pyrimidinyl)-1-piperazinyl]butyl]-4,7-etheno-1H-cyclobut[f]isoindole-1,3(2H)-dione, dihydrochloride, sesquihydrate], the figures for the Ki in assay [1] and in assay [4] (setting [5]) were 0.345 µM and 0.017 µM, respectively. The Active at mg/kg in assay [2] is 40 (i.p.) mg/kg. Moreover, in assay [3], the ED50 was found to be 13.4 mg/kg.

Source of the values: patent EP0220873B1, “Fused bicyclic imides with psychotropic activity” (priority 1985, dated 1987).
